According to ChEMBL document CHEMBL5108010, “Structure-activity relationship studies on divalent naphthalene diimide G quadruplex ligands with anticancer and antiparasitic activity” (Bioorg Med Chem, 2022):
Several values for one entry are separate records, joined by “and”; a condition that tells them apart may be missing. Equal values may be shown once. One block for each compound: values may come before it.

How the values were obtained:
[1] = tested on: Leishmania major; assay: Antileishmanial activity against Leishmania major (MHOM/IL/80/Friedlin) promastigotes assessed as inhibition of parasite growth incubated for 72 hrs by MTT assay; type: functional, organism-based
[2] = tested on: MRC5; assay: (§1) Cytotoxicity against human MRC5 cells assessed as inhibition of cell proliferation incubated for 72 hrs by alamar blue assay; type: toxicity, cell-based; conditions: mrc5
[3] = as §1; type: toxicity, cell-based; conditions: human, MRC5 cells
[4] = tested on: Quadruplex DNA; assay: Binding affinity to G-quadruplex telomeric DNA F21T (5'-duplex GGG TTAGGG TTAGGG TTAGGG-3') (unknown origin) assessed as stabilization by measuring change in melting temperature at 10 uM in sodium buffer by FRET melting assay; type: nucleic-acid assay
[5] = tested on: HeLa; assay: Cytotoxicity against human HeLa cells assessed as inhibition of cell proliferation incubated for 72 hrs by alamar blue assay; type: functional, cell-based
[6] = Binding affinity to hairpin duplex DNA F10T (unknown origin) assessed as stabilization by measuring change in melting temperature at 10 uM in potassium buffer by FRET melting assay
[7] = tested on: Trypanosoma brucei; assay: Antitrypanosomal activity against Trypanosoma brucei bloodstream form assessed as inhibition of parasite growth incubated for 72 hrs by alamar blue assay; type: functional, organism-based
[8] = Selectivity index, ratio of IC50 for cytotoxicity against human MRC5 cells to IC50 for antitrypanosomal activity against Trypanosoma brucei bloodstream form; type: toxicity, cell-based
[9] = Selectivity index, ratio of IC50 for cytotoxicity against human MRC5 cells to IC50 for cytotoxicity against human HeLa cells; type: toxicity, cell-based; conditions: for selectivity ratio: MRC5 cells versus HeLa cells, read-out: Ratio IC50
[10] = tested on: Quadruplex DNA; assay: Binding affinity to G-quadruplex telomeric DNA FMycT (5'-duplex GGG TTAGGG TTAGGG TTAGGG-3') (unknown origin) assessed as stabilization by measuring change in melting temperature at 10 uM in potassium buffer by FRET melting assay; type: nucleic-acid assay
[11] = tested on: Quadruplex DNA; assay: Binding affinity to G-quadruplex telomeric DNA F21T (5'-duplex GGG TTAGGG TTAGGG TTAGGG-3') (unknown origin) assessed as stabilization by measuring change in melting temperature at 10 uM in potassium buffer by FRET melting assay; type: nucleic-acid assay
[12] = tested on: Quadruplex DNA; assay: Binding affinity to Trypanosoma brucei G-quadruplex telomeric DNA FEBR1T (5'-duplex GGG TTAGGG TTAGGG TTAGGG-3') assessed as stabilization by measuring change in melting temperature at 10 uM in potassium buffer by FRET melting assay; type: nucleic-acid assay
[13] = Drug uptake in Trypanosoma brucei incubated at 4 degreeC for 2 hrs by flow cytometry analysis; type: ADME
[14] = Drug uptake in Trypanosoma brucei assessed as drug internalization at 5 uM incubated for 6 hrs by DAPI staining based confocal fluorescence microscopic analysis; type: ADME
[15] = Drug uptake in human MRC5 cells incubated at 4 degreeC for 30 mins by flow cytometry analysis; type: ADME, cell-based; conditions: mrc5, 0.5 h
[16] = Drug uptake in Trypanosoma brucei incubated at 4 degreeC for 16 hrs by flow cytometry analysis; type: ADME
[17] = Drug uptake in Trypanosoma brucei assessed as drug internalization at 5 uM incubated for 2 hrs by DAPI staining based confocal fluorescence microscopic analysis; type: ADME
[18] = Drug uptake in human MRC5 cells incubated at 37 degreeC for 30 mins by flow cytometry analysis; type: ADME, cell-based; conditions: mrc5, 0.5 h
[19] = Drug internalization in nuclei of human MRC5 cells at 5 uM incubated for 2 hrs by DAPI staining based confocal fluorescence microscopic analysis; type: ADME, cell-based; conditions: mrc5, 2 h
[20] = Drug uptake in human MRC5 cells incubated at 4 degreeC for 2 hrs by flow cytometry analysis; type: ADME, cell-based; conditions: mrc5, 2 h
[21] = Drug internalization in nuclei of Trypanosoma brucei at 5 uM incubated for 6 hrs by DAPI staining based confocal fluorescence microscopic analysis; type: ADME
[22] = Drug uptake in human MRC5 cells assessed as drug internalization at 5 uM incubated for 120 mins by DAPI staining based confocal fluorescence microscopic analysis; type: ADME, cell-based; conditions: mrc5, 2 h
[23] = Selectivity index, ratio of IC50 for cytotoxicity against human MRC5 cells to IC50 for antileishmanial activity against Leishmania major (MHOM/IL/80/Friedlin) promastigotes; type: toxicity, cell-based; conditions: read-out: Ratio IC50
[24] = Drug uptake in Trypanosoma brucei incubated at 37 degreeC for 16 hrs by flow cytometry analysis; type: ADME
[25] = Drug uptake in human MRC5 cells assessed as drug internalization at 5 uM incubated for 30 mins by DAPI staining based confocal fluorescence microscopic analysis; type: ADME, cell-based; conditions: mrc5, 0.5 h
[26] = Drug uptake in Trypanosoma brucei incubated at 37 degreeC for 2 hrs by flow cytometry analysis; type: ADME
[27] = Drug uptake in human MRC5 cells incubated at 37 degreeC for 2 hrs by flow cytometry analysis; type: ADME, cell-based; conditions: mrc5, 2 h
[28] = tested on: Quadruplex DNA; assay: Binding affinity to G-quadruplex telomeric DNA F21T (5'-duplex GGG TTAGGG TTAGGG TTAGGG-3') (unknown origin) assessed as stabilization by measuring change in melting temperature at 1 uM in potassium buffer by FRET melting assay; type: nucleic-acid assay
[29] = tested on: Quadruplex DNA; assay: Binding affinity to G-quadruplex telomeric DNA F21T (5'-duplex GGG TTAGGG TTAGGG TTAGGG-3') (unknown origin) assessed as stabilization by measuring change in melting temperature at 1 uM in sodium buffer by FRET melting assay; type: nucleic-acid assay
[30] = Binding affinity to hairpin duplex DNA F10T (unknown origin) assessed as stabilization by measuring change in melting temperature at 1 uM in potassium buffer by FRET melting assay
[31] = tested on: Quadruplex DNA; assay: Binding affinity to G-quadruplex telomeric DNA FMycT (5'-duplex GGG TTAGGG TTAGGG TTAGGG-3') (unknown origin) assessed as stabilization by measuring change in melting temperature at 1 uM in potassium buffer by FRET melting assay; type: nucleic-acid assay
[32] = tested on: Quadruplex DNA; assay: Binding affinity to Trypanosoma brucei G-quadruplex telomeric DNA FEBR1T (5'-duplex GGG TTAGGG TTAGGG TTAGGG-3') assessed as stabilization by measuring change in melting temperature at 1 uM in potassium buffer by FRET melting assay; type: nucleic-acid assay

- ΔTm [4]: 1.4 °C and 1.9 °C
- ΔTm [6]: 0.1 °C and -0.3 °C
- IC50 [7]: 48 nM and 110 nM
- ΔTm [10]: 0.9 °C and 2.3 °C
- ΔTm [11]: 1.6 °C and 1.9 °C
SMILES: CN1CCN(c2ccccc2N2C(=O)c3ccc4c5c(ccc(c35)C2=O)C(=O)N(c2ccccc2N2CCN(C)CC2)C4=O)CC1
- IC50 [1]: 790 nM and 3110 nM
- IC50 [2]: 1230 nM
- IC50 at 72 h [3]: 1500 nM
- IC50 ([5]; Homo sapiens, HeLa, 72 h): 1210 nM
- IC50 ([5]; hela): 740 nM
- Ratio IC50 [8]: 30.69 and 10.53
- Ratio IC50 [9]: 1.66
- selectivity ratio [9]: 1.23

- ΔTm [12]: 0.9 °C
- Drug uptake [13]: Active
- ΔTm [4]: 1.3 °C
- Drug uptake [14]: Active
- ΔTm [6]: -0.1 °C
- IC50 ([7]; Trypanosoma brucei, 72 h): 750 nM
- Drug uptake [15]: Active
- ΔTm [10]: 1.8 °C
- Drug uptake [16]: Active
- Drug uptake [17]: Active
- Drug uptake [18]: Active
- Drug uptake [19]: Active
- Drug uptake [20]: Active
- Drug uptake [21]: Active
- Drug uptake [22]: Active
- Drug uptake [24]: Active
- Drug uptake [25]: Active
- Drug uptake [26]: Active
- ΔTm [11]: 1.4 °C
- Drug uptake [27]: Active
SMILES: CN1CCN(c2ccc(N3C(=O)c4ccc5c6c(ccc(c46)C3=O)C(=O)N(c3ccc(N4CCN(C)CC4)cc3)C5=O)cc2)CC1
- IC50 ([1]; Leishmania major, MHOM/IL/80/Friedlin, 72 h): 930 nM
- IC50 at 72 h [3]: 22300 nM
- IC50 ([5]; Homo sapiens, HeLa, 72 h): 2290 nM
- selectivity ratio ([8]; MRC5 cells versus Trypanosoma brucei bloodstream form, read-out: Ratio IC50): 29.5
- selectivity ratio [9]: 9.72
- selectivity ratio [23]: 23.8

SMILES: C[n+]1ccc(-c2c3nc(c(-c4cc[n+](C)cc4)c4ccc([nH]4)c(-c4cc[n+](C)cc4)c4ccc([nH]4)c(-c4cc[n+](C)cc4)c4nc2C=C4)C=C3)cc1
- ΔTm [28]: 28.1 °C
- ΔTm [29]: 34.2 °C
- ΔTm [30]: 7.2 °C
- ΔTm [31]: 27.5 °C
- ΔTm [32]: 28 °C
